Laboratory results: patent US8338587B2, “Compounds” (AstraZeneca AB, priority 2009, dated 2012)

Target: T1, recombinant human GR (Homo sapiens, UniProt P04150)
T1 construct: purchased Panvera/Invitrogen P2812 (kit P2893)
T1 sequence (P04150 1-777): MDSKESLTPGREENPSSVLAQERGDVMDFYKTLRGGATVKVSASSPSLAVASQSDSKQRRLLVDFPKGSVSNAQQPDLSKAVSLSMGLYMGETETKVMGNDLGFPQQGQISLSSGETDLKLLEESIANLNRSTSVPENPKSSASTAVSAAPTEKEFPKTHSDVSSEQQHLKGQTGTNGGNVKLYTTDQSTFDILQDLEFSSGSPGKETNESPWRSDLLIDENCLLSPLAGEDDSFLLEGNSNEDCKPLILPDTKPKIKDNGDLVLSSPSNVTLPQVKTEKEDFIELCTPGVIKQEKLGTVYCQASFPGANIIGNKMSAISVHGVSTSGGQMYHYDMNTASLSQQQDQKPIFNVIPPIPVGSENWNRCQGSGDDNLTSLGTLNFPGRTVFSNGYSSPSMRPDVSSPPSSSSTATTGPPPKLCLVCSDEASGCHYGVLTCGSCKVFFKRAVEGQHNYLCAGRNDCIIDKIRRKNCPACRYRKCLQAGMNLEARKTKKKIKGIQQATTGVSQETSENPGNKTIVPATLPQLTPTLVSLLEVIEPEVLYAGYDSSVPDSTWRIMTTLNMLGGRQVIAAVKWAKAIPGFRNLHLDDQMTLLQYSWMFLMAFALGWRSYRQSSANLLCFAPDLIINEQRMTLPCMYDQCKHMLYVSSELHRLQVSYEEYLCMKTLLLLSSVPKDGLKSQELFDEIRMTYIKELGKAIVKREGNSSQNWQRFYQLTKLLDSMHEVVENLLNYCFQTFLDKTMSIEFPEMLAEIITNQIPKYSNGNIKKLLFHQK
Experiment: Human Glucocorticoid Receptor (GR) Assay (fluorescence polarization competition, Panvera/Invitrogen kit)
Settings: GS Red Fluoromone tracer, 2 hours at room temperature, 100% control 10 μM Dexamethasone, read-out: Inhibition of GR binding, IC50
Protocol: Human Glucocorticoid Receptor (GR) Assay The assay is based on a commercial kit from Panvera/Invitrogen (Part number P2893). The assay technology is fluorescence polarization. The kit utilises recombinant human GR (Panvera, Part number P2812), a Fluoromone™ labelled tracer (GS Red, Panvera, Part number P2894) and a Stabilizing Peptide 10× (Panvera, Part number P2815). The GR and Stabilizing Peptide reagents are stored at −70° C. while the GS Red is stored at −20° C. Also included in the kit are 1M DTT (Panvera, Part number P2325, stored at −20° C.) and GR Screening buffer 10× (Panvera, Part number P2814, stored at −70° C. initially but once thawed stored at room temperature). Avoid repeated freeze/thaws for all reagents. The GR Screening buffer 10× comprises 100 mM potassium phosphate, 200 mM sodium molybdate, 1 mM EDTA and 20% DMSO. Test compounds (1 μL) and controls (1 μL) in 100% DMSO were added to black is polystyrene 384-well plates (Greiner low volume black flat-bottom, part number 784076). 0% control was 100% DMSO and 100% control was 10 μM Dexamethasone. Background solution (8 μL; assay buffer 10×, Stabilizing Peptide, DTT and ice cold MQ water) was added to the background wells. GS Red solution (7 μL; assay buffer 10×, Stabilizing Peptide, DTT, GS Red and ice cold water) was added to all wells except background wells. GR solution (7 μL; assay buffer 10×, Stabilizing Peptide, DTT, GR and ice cold water) was added to all wells. The plate was sealed and incubated in a dark at room temperature for 2 hours. The plate was read in an Analyst plate reader (LJL Biosystems/Molecular Devices Corporation) or other similar plate reader capable of recording fluorescence polarization (excitation wavelength 530 nm, emission wavelength 590 nm and a dichroic mirror at 561 nm).

Compound	IC50
C[C@]12Cc3cnn(-c4ccc(F)nc4)c3C=C1CC[C@H]1[C@@H]3CC[C@](OC(=O)C4CCOC4)(C(=O)SCC#N)[C@@]3(C)C[C@H](O)[C@@]12F (single isomer, unassigned) [15 (R)/(S) isomer]	0.57 nM
C[C@]12Cc3cnn(-c4ccc(F)nc4)c3C=C1CC[C@H]1[C@@H]3CC[C@](OC(=O)C4CCOC4)(C(=O)SCC#N)[C@@]3(C)C[C@H](O)[C@@]12F (single isomer, unassigned) [15 (S)/(R) isomer]	0.58 nM
C[C@]12Cc3cnn(-c4ccc(F)nc4)c3C=C1CC[C@H]1[C@@H]3CC[C@](OC(=O)C4CCOC4)(C(=O)SCF)[C@@]3(C)C[C@H](O)[C@@]12F (single isomer, unassigned) [16 (R)/(S) isomer]	0.44 nM
C[C@]12Cc3cnn(-c4ccc(F)nc4)c3C=C1CC[C@H]1[C@@H]3CC[C@](OC(=O)C4CCOC4)(C(=O)SCF)[C@@]3(C)C[C@H](O)[C@@]12F (single isomer, unassigned) [16 (S)/(R) isomer]	1.3 nM
CC12Cc3cnn(-c4ccc(F)nc4)c3C=C1CC[C@@H]1C2[C@@H](O)C[C@@]2(C)[C@H]1CC[C@]2(OC(=O)C1CC1)C(=O)OCC#N (stereo in doubt) [Example 20, (1R,3aS,3bS,10aS,10bR,11S,12aS)-1-{[Cyanomethyloxy]carbonyl}-7-(6-fluoropyridin-3-yl)-11-hydroxy-10a,12a-dimethyl-1,2,3,3a,3b,4,5,7,10,10a,10b,11,12,12a-tetradecahydrocyclopenta[5,6]naphtho[1,2-f]indazol-1-yl cyclopropanecarboxylate]	2.3 nM
COCC(=O)O[C@]1(C(=O)SCF)[C@H](C)C[C@H]2[C@@H]3CCC4=Cc5c(cnn5-c5ccc(F)nc5)C[C@]4(C)[C@@]3(F)[C@@H](O)C[C@@]21C [Example 1, (1R,2R,3aS,3bS,10aS,10bR,11S,12aS)-10b-Fluoro-1-{[(fluoromethyl)sulfanyl]carbonyl}-7-(6-fluoropyridin-3-yl)-11-hydroxy-2,10a,12a-trimethyl-1,2,3,3a,3b,4,5,7,10,10a,10b,11,12,12a-tetradecahydrocyclopenta[5,6]naphtho[1,2-f]indazol-1-yl methoxyacetate]	3.5 nM
CCC(=O)O[C@]1(C(=O)SCF)[C@H](C)C[C@H]2[C@@H]3CCC4=Cc5c(cnn5-c5ccc(F)nc5)C[C@]4(C)[C@@]3(F)[C@@H](O)C[C@@]21C [Example 2, (1R,2R,3aS,3bS,10aS,10bR,11S,12aS)-10b-Fluoro-1-{[(fluoromethyl)sulfanyl]carbonyl}-7-(6-fluoropyridin-3-yl)-11-hydroxy-2,10a,12a-trimethyl-1,2,3,3a,3b,4,5,7,10,10a,10b,11,12,12a-tetradecahydrocyclopenta[5,6]naphtho[1,2-f]indazol-1-yl propanoate]	1.9 nM
CCC(=O)O[C@]1(C(=O)SCC#N)[C@H](C)C[C@H]2[C@@H]3CCC4=Cc5c(cnn5-c5ccc(F)nc5)C[C@]4(C)[C@@]3(F)[C@@H](O)C[C@@]21C [Example 3, (1R,2R,3aS,3bS,10aS,10bR,11S,12aS)-1-{[(Cyanomethyl)sulfanyl]carbonyl}-10b-fluoro-7-(6-fluoropyridin-3-yl)-11-hydroxy-2,10a,12a-trimethyl-1,2,3,3a,3b,4,5,7,10,10a,10b,11,12,12a-tetradecahydrocyclopenta[5,6]naphtho[1,2-f]indazol-1-yl propanoate]	1.6 nM
C[C@@H]1C[C@H]2[C@@H]3CCC4=Cc5c(cnn5-c5ccc(F)nc5)C[C@]4(C)[C@@]3(F)[C@@H](O)C[C@]2(C)[C@@]1(OC(=O)c1cocn1)C(=O)SCF [Example 4, (1R,2R,3aS,3bS,10aS,10bR,11S,12aS)-10b-Fluoro-1-{[(fluoromethyl)sulfanyl]carbonyl}-7-(6-fluoropyridin-3-yl)-11-hydroxy-2,10a,12a-trimethyl-1,2,3,3a,3b,4,5,7,10,10a,10b,11,12,12a-tetradecahydrocyclopenta[5,6]naphtho[1,2-f]indazol-1-yl 1,3-oxazole-4-carboxylate]	2.8 nM
CCC(=O)O[C@]1(C(=O)SCF)[C@H](C)C[C@H]2[C@@H]3CCC4=Cc5c(cnn5-c5ccc(F)cc5)C[C@]4(C)[C@@]3(F)[C@@H](O)C[C@@]21C [Example 5, (1R,2R,3aS,3bS,10aS,10bR,11S,12aS)-10b-Fluoro-1-{[(fluoromethyl)sulfanyl]carbonyl}-7-(4-fluorophenyl)-11-hydroxy-2,10a,12a-trimethyl-1,2,3,3a,3b,4,5,7,10,10a,10b,11,12,12a-tetradecahydrocyclopenta[5,6]naphtho[1,2-f]indazol-1-yl propanoate]	11 nM

Results, then the molecule that gave them:

IC50	Compound
0.55 nM	C[C@]12Cc3cnn(-c4ccc(F)nc4)c3C=C1CC[C@H]1[C@@H]3CC[C@](OC(=O)C4CCOC4)(C(=O)SCC#N)[C@@]3(C)C[C@H](O)[C@@]12F (mixture of isomers) [Example 15 (racemate), (1R,3aS,3bS,10aS,10bR,11S,12aS)-1-{[(Cyanomethyl)sulfanyl]carbonyl}-10b-fluoro-7-(6-fluoropyridin-3-yl)-11-hydroxy-10a,12a-dimethyl-1,2,3,3a,3b,4,5,7,10,10a,10b,11,12,12a-tetradecahydrocyclopenta[5,6]naphtho[1,2-f]indazol-1-yl tetrahydrofuran-3-carboxylate]
0.53 nM	C[C@]12Cc3cnn(-c4ccc(F)nc4)c3C=C1CC[C@H]1[C@@H]3CC[C@](OC(=O)C4CCOC4)(C(=O)SCF)[C@@]3(C)C[C@H](O)[C@@]12F (mixture of isomers) [Example 16 (racemate), (1R,3aS,3bS,10aS,10bR,11S,12aS)-10b-Fluoro-1-{[(fluoromethyl)sulfanyl]carbonyl}-7-(6-fluoropyridin-3-yl)-11-hydroxy-10a,12a-dimethyl-1,2,3,3a,3b, 4,5,7,10,10a,10b,11,12,12a-tetradecahydrocyclopenta[5,6]naphtho[1,2-f]indazol-1-yl tetrahydrofuran-3-carboxylate]
3.1 nM	C[C@]12Cc3cnn(-c4ccc(F)cc4)c3C=C1CC[C@@H]1[C@@H]2[C@@H](O)C[C@@]2(C)[C@H]1CC[C@]2(OC(=O)C1CCCO1)C(=O)SCCO (single isomer, unassigned) [Example 18]
7.8 nM	COCC(=O)O[C@]1(C(=O)SCF)[C@H](C)C[C@H]2[C@@H]3CCC4=Cc5c(cnn5-c5ccc(F)cc5)C[C@]4(C)[C@@]3(F)[C@@H](O)C[C@@]21C [Example 6, (1R,2R,3aS,3bS,10aS,10bR,11S,12aS)-10b-Fluoro-1-{[(fluoromethyl)sulfanyl]carbonyl}-7-(4-fluorophenyl)-11-hydroxy-2,10a,12a-trimethyl-1,2,3,3a,3b,4,5,7,10,10a,10b,11,12,12a-tetradecahydrocyclopenta[5,6]naphtho[1,2-f]indazol-1-yl methoxyacetate]
1.9 nM	CCC(=O)O[C@]1(C(=O)SCF)CC[C@H]2[C@@H]3C[C@H](C)C4=Cc5c(cnn5-c5ccc(F)nc5)C[C@]4(C)[C@H]3[C@@H](O)C[C@@]21C [Example 7, (1R,3aS,3bS,5S,10aR,10bS,11S,12aS)-1-{[(Fluoromethyl)sulfanyl]carbonyl}-7-(6-fluoropyridin-3-yl)-11-hydroxy-5,10a,12a-trimethyl-1,2,3,3a,3b,4,5,7,10,10a,10b,11,12,12a-tetradecahydrocyclopenta[5,6]naphtho[1,2-f]indazol-1-yl propanoate]
